Results published in ChEMBL document CHEMBL5212743, “Selectivity Literature for EUbOPEN Chemogenomics Library wave 3” (2023).

Tests used:
[1] = target: Sodium-dependent serotonin transporter (Homo sapiens) (UniProt P31645); experiment: Selectivity interaction (Enzyme panel (CEREP ligand profiling)) EUB0000328a SLC6A4; details: at 10 µM
[2] = target: Sodium-dependent dopamine transporter (Homo sapiens, UniProt Q01959); experiment: Selectivity interaction (Enzyme panel (CEREP ligand profiling)) EUB0000328a SLC6A3; details: at 10 µM
[3] = test system: Tyrosine-protein kinase ABL1 (Homo sapiens), P00519 [H396P]; experiment: Selectivity interaction (KinomeScan (DiscoverX)) EUB0000328a ABL1; details: at 1 µM
[4] = target: Protein kinase C epsilon type (Homo sapiens) (UniProt Q02156); experiment: Selectivity interaction (KinomeScan (DiscoverX)) EUB0000328a PRKCE; details: at 1 µM
Chain of Protein kinase C epsilon type (Homo sapiens) (Q02156 whole entry): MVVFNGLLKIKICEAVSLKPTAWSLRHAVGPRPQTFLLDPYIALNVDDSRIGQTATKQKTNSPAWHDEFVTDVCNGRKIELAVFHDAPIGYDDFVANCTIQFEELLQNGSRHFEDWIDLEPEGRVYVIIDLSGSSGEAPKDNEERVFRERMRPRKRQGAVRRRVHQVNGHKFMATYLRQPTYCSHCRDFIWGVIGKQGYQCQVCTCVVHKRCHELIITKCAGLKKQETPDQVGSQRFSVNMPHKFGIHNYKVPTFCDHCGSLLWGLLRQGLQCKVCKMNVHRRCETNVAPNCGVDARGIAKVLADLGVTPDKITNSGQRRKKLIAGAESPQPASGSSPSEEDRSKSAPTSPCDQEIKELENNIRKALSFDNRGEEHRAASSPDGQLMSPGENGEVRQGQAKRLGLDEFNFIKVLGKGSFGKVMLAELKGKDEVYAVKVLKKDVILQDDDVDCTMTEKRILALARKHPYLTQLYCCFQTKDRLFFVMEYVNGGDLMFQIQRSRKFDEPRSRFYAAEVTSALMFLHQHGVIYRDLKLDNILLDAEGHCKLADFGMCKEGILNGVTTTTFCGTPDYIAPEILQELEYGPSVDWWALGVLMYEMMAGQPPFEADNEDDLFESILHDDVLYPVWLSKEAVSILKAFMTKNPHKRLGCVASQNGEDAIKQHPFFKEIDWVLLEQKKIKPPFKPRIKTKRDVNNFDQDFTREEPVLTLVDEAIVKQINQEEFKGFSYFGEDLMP

[5] = target: T1, Serine/threonine-protein kinase LATS2 (Homo sapiens) (UniProt Q9NRM7); experiment: Selectivity interaction (KinomeScan (DiscoverX)) EUB0000328a LATS2; details: at 1 µM
T1 sequence (whole entry): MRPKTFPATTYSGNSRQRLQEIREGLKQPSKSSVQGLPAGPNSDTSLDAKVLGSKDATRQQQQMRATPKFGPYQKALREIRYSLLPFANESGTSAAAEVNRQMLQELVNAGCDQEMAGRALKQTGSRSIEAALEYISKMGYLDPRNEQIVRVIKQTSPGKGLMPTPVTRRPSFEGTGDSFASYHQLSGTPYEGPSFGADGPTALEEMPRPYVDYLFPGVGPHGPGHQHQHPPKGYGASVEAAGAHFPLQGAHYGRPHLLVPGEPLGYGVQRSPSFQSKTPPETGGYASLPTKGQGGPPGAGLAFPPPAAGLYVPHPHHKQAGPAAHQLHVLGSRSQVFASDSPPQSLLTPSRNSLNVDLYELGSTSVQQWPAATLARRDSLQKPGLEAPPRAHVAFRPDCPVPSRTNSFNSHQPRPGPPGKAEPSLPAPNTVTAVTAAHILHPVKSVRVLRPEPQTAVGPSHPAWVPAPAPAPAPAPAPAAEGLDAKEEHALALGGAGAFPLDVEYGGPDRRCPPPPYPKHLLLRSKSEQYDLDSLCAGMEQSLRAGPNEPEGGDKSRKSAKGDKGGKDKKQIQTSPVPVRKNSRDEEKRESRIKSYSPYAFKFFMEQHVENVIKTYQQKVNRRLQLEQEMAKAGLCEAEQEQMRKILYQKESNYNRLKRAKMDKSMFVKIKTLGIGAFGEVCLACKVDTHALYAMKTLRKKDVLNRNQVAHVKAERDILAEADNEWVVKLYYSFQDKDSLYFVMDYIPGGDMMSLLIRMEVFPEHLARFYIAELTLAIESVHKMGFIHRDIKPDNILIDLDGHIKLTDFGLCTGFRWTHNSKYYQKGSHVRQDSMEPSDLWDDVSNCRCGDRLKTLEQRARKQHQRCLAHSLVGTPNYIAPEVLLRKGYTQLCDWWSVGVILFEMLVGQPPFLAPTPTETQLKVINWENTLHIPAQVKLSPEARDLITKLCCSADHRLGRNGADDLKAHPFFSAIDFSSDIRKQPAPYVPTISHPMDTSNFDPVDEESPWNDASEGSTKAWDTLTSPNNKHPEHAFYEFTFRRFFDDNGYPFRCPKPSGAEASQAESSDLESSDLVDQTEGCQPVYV

[6] = target: T2, Gamma-aminobutyric acid receptor subunit alpha-1 (Homo sapiens, UniProt P14867); experiment: Selectivity interaction (GPCR panel (PDSP screen)) EUB0000328a GABRA1
T2 sequence (P14867 whole entry): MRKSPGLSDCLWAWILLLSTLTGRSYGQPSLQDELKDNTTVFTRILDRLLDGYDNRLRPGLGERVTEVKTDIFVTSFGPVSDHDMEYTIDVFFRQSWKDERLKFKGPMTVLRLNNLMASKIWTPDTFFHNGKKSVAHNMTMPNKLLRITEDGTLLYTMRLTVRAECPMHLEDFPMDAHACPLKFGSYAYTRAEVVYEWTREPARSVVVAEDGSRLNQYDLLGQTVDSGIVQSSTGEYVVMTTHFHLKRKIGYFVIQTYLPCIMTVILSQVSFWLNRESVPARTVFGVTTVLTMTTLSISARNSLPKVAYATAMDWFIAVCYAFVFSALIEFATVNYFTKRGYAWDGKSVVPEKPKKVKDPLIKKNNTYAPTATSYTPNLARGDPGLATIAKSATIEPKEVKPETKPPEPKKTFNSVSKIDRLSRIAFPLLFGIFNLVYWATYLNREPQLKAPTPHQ

[7] = target: High affinity nerve growth factor receptor (Homo sapiens, UniProt P04629); experiment: Selectivity interaction (KinomeScan (DiscoverX)) EUB0000326a NTRK1; details: Inhibition of LnCaP-FGC cell proliferation > […] µM (PMID: 28953875);, Selectivity Remarks Screened at 1 µM (in vitro, >[…]-fold less potent then probe A-485), Selectivity Source Knowledge ht
[8] = target: T2, Gamma-aminobutyric acid receptor subunit alpha-1; experiment: Selectivity interaction (GPCR panel (PDSP screen)) EUB0000326a GABRA1
[9] = target: Phosphatidylinositol 4,5-bisphosphate 3-kinase catalytic subunit alpha isoform (Homo sapiens, UniProt P42336); experiment: Selectivity interaction (KinomeScan (DiscoverX)) EUB0000326a PIK3CA; details: Inhibition of LnCaP-FGC cell proliferation > […] µM (PMID: 28953875);, Selectivity Remarks Screened at 1 µM (in vitro, >[…]-fold less potent then probe A-485), Selectivity Source Knowledge ht
[10] = target: T3, Ephrin type-B receptor 6 (Homo sapiens) (UniProt O15197); experiment: Selectivity interaction (KinomeScan (DiscoverX)) EUB0000326a EPHB6; details: Inhibition of LnCaP-FGC cell proliferation > […] µM (PMID: 28953875);, Selectivity Remarks Screened at 1 µM (in vitro, >[…]-fold less potent then probe A-485), Selectivity Source Knowledge ht
T3 sequence (whole entry): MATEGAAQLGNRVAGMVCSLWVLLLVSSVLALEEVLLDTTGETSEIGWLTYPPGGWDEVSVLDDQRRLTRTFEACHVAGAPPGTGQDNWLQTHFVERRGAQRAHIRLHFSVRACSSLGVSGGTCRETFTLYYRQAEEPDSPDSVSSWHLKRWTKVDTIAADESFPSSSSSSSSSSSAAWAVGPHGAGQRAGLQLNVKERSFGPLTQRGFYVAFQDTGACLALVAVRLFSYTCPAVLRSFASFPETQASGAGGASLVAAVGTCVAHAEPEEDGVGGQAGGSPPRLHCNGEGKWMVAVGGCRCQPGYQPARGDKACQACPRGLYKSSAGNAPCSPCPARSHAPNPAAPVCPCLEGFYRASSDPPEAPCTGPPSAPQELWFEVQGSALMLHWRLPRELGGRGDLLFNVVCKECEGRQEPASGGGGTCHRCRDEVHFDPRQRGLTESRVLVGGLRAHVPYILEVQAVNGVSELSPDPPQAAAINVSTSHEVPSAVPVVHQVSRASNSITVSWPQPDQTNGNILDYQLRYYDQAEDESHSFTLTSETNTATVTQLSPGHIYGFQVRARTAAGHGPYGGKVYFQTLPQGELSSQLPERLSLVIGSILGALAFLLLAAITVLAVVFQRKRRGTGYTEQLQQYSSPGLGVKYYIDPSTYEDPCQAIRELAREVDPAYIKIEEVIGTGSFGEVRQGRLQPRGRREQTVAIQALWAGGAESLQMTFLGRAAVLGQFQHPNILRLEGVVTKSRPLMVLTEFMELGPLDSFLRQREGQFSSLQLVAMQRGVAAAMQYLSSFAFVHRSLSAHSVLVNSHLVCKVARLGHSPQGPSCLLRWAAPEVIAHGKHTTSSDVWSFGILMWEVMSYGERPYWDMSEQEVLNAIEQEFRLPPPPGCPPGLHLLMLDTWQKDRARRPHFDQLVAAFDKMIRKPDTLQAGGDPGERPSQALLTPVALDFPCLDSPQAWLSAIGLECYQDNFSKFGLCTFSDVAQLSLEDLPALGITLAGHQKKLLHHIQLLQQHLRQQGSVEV

[11] = target: Epithelial discoidin domain-containing receptor 1 (Homo sapiens, UniProt Q08345); experiment: Selectivity interaction (KinomeScan (DiscoverX)) EUB0000710a DDR1; details: at 1 µM
Chain of Epithelial discoidin domain-containing receptor 1 (Q08345 whole entry, the tested form may be a part): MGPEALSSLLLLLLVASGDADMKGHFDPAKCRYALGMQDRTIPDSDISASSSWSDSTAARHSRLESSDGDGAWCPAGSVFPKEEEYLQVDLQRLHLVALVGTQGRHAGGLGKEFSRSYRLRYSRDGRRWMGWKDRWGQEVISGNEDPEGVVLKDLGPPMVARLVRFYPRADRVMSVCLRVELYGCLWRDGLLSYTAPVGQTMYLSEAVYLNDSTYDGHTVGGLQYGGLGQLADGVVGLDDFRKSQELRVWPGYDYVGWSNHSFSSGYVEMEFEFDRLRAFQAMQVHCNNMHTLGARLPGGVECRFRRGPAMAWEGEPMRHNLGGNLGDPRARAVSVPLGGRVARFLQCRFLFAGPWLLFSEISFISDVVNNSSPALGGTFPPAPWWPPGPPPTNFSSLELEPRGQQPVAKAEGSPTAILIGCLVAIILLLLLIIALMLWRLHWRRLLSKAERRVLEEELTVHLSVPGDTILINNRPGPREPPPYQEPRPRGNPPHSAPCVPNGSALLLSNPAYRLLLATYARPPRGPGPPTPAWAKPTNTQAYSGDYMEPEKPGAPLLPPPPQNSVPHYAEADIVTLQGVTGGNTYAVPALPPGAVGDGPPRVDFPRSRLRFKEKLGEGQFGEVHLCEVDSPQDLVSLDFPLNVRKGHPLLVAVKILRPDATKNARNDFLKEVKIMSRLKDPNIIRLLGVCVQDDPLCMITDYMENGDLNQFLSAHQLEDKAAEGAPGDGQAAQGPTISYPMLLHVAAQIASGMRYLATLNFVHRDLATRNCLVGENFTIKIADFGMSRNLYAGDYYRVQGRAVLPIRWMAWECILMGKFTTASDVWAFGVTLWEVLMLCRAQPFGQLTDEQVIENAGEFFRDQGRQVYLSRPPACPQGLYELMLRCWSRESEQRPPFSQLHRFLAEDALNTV

[12] = test system: Epidermal growth factor receptor (Homo sapiens), P00533 [L861Q]; experiment: Selectivity interaction (KinomeScan (DiscoverX)) EUB0000710a EGFR; details: at 1 µM
Chain of Epidermal growth factor receptor (Homo sapiens), P00533 [L861Q] (P00533 whole entry L861Q): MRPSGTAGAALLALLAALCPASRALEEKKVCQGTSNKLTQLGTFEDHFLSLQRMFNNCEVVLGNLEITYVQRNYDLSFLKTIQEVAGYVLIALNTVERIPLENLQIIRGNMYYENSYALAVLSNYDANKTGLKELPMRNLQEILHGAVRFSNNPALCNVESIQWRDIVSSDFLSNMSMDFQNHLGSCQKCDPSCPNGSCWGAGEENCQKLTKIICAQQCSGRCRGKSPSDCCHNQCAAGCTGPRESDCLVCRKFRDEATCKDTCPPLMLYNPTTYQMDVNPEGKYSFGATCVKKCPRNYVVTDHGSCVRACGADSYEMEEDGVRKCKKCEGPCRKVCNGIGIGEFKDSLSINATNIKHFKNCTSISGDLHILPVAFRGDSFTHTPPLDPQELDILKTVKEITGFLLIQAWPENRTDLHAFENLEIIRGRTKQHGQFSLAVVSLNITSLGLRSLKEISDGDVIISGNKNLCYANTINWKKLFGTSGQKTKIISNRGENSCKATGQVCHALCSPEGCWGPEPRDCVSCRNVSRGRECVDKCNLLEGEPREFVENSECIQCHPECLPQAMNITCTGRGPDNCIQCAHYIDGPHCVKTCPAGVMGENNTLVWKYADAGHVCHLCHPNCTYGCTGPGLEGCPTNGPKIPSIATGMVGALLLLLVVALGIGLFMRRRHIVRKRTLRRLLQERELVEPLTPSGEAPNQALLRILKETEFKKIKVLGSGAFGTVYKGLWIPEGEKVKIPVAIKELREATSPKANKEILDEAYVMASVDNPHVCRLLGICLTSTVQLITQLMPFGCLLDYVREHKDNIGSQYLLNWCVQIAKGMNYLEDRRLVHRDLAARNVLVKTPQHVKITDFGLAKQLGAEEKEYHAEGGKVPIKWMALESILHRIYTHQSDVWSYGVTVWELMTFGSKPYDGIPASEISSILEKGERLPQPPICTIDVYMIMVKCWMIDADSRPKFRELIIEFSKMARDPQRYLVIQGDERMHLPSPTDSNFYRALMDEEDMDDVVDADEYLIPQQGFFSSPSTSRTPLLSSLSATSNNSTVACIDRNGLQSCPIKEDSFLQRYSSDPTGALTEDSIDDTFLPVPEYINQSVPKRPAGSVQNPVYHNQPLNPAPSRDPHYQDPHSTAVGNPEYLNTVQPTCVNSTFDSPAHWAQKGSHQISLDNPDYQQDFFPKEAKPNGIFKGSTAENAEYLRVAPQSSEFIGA

[13] = target: 5-hydroxytryptamine receptor 2B (Homo sapiens, UniProt P41595); experiment: Selectivity interaction (GPCR panel (PDSP screen)) EUB0000710a HTR2B
Chain of 5-hydroxytryptamine receptor 2B (P41595 whole entry): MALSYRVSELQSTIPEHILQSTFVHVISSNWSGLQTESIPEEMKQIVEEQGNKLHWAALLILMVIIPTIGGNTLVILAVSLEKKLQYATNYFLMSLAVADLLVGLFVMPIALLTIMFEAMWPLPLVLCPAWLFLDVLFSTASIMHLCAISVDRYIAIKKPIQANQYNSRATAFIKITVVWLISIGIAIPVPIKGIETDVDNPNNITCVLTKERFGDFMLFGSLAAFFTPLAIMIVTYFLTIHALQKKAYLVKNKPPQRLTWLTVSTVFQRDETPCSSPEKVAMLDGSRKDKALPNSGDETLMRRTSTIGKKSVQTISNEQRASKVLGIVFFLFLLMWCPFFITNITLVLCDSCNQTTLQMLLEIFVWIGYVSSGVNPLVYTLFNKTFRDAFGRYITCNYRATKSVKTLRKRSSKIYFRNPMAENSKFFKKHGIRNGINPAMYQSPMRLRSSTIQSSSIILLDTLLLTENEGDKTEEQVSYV

[14] = target: Serine/threonine-protein kinase TNNI3K (Homo sapiens) (UniProt Q59H18); experiment: Selectivity interaction (KinomeScan (DiscoverX)) EUB0000710a TNNI3K; details: at 1 µM
Chain of Serine/threonine-protein kinase TNNI3K (Homo sapiens) (Q59H18 whole entry, canonical isoform): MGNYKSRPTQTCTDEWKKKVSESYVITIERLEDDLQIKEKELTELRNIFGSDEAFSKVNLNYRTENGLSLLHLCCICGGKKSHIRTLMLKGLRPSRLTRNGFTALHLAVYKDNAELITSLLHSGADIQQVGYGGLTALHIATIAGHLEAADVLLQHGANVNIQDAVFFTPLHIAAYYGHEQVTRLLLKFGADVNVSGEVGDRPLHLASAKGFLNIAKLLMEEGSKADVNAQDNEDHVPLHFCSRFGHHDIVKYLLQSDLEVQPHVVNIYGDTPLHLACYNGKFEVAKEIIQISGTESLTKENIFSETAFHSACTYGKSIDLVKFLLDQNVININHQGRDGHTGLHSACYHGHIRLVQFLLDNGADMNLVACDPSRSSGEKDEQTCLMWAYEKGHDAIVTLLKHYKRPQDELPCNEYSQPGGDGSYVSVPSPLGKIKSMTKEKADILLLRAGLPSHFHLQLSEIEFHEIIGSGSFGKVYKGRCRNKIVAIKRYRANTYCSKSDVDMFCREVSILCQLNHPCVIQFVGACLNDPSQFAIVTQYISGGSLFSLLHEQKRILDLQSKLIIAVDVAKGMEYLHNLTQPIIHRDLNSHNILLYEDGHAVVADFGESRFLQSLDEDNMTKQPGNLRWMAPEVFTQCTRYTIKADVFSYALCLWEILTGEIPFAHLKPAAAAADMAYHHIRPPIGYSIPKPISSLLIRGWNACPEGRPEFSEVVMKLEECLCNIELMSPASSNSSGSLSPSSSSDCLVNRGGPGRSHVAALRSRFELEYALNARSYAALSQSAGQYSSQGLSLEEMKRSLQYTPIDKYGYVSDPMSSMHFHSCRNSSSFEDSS

[15] = test system: Phosphatidylinositol 4,5-bisphosphate 3-kinase catalytic subunit alpha isoform (Homo sapiens), P42336 [Q546K]; experiment: Selectivity interaction (KinomeScan (DiscoverX)) EUB0000710a PIK3CA; details: at 1 µM
[16] = target: T4, Serine/threonine-protein kinase TAO3 (Homo sapiens) (UniProt Q9H2K8); experiment: Selectivity interaction (KinomeScan (DiscoverX)) EUB0000710a TAOK3; details: at 1 µM
T4 sequence (whole entry): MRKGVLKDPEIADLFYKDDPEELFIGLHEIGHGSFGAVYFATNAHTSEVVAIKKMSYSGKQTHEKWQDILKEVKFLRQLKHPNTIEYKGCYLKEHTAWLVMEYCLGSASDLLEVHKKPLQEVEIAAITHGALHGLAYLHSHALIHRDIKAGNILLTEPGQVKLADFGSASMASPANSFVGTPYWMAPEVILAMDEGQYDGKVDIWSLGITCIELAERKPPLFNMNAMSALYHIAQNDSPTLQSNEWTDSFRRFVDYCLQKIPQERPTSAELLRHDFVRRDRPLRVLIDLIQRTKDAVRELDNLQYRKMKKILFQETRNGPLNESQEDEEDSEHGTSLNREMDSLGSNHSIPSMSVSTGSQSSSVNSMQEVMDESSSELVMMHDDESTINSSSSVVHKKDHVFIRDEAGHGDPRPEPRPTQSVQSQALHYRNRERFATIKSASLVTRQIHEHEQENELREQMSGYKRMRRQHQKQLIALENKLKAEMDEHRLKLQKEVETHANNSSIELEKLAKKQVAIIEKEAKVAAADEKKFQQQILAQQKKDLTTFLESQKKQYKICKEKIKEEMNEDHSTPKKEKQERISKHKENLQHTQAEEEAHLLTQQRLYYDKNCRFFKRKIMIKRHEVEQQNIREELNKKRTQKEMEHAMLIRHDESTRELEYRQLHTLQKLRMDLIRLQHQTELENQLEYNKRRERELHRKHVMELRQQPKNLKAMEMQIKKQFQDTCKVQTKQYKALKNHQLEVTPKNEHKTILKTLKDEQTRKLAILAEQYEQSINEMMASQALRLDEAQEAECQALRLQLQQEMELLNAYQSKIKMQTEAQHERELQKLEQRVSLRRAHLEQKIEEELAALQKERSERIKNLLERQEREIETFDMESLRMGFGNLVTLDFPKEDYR

[17] = target: T5, Myosin-IIIb (Homo sapiens) (UniProt Q8WXR4); experiment: Selectivity interaction (KinomeScan (DiscoverX)) EUB0000710a MYO3B; details: at 1 µM
T5 sequence (whole entry): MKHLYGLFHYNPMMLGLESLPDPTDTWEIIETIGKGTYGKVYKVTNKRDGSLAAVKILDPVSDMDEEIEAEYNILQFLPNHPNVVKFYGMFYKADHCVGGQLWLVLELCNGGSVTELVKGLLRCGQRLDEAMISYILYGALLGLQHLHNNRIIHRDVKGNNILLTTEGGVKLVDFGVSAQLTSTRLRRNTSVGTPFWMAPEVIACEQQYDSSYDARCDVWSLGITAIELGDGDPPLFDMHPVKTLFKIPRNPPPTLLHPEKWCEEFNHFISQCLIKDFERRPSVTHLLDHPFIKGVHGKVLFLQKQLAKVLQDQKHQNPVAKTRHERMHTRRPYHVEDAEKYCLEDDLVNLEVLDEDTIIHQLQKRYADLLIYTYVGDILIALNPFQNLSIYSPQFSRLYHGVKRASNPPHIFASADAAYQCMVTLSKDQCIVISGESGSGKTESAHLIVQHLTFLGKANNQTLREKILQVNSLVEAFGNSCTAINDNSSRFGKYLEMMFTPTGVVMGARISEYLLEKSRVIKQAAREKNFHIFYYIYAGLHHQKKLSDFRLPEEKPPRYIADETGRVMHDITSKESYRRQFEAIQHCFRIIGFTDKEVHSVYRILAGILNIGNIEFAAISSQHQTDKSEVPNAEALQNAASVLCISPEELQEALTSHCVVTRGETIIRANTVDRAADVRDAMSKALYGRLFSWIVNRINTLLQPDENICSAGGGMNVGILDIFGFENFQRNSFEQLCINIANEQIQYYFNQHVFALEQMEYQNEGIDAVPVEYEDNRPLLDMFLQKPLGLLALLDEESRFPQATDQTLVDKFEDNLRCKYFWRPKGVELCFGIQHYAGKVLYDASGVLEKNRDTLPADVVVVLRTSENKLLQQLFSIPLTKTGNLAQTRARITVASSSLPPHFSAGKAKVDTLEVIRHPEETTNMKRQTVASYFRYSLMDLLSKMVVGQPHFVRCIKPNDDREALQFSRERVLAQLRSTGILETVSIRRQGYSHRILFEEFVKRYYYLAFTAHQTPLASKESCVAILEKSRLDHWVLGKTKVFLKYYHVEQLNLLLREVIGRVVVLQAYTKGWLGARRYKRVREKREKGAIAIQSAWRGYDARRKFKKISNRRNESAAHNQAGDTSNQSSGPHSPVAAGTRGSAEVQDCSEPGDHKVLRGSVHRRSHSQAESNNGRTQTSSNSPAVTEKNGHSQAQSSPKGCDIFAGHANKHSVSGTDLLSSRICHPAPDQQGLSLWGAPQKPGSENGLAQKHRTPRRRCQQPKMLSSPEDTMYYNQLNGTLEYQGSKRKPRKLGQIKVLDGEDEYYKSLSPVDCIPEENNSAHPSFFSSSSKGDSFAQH

Chain of Sodium-dependent serotonin transporter (Homo sapiens) (P31645 whole entry, looked up): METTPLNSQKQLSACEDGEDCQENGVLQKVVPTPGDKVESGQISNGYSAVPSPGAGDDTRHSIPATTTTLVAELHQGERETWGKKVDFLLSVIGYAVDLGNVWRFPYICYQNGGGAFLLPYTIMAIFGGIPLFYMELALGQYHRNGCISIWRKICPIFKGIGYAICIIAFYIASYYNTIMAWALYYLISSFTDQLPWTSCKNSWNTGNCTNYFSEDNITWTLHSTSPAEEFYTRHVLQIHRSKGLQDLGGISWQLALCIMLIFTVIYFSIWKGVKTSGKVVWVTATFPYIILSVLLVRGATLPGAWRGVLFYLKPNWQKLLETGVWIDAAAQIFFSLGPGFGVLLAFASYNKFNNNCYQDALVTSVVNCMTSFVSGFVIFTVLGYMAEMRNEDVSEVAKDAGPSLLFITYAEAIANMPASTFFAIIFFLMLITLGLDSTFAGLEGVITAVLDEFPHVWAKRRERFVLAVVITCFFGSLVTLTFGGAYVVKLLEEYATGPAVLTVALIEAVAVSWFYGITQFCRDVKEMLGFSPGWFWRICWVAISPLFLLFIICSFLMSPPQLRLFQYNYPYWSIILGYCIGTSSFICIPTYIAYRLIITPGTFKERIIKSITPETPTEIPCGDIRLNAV

CNC(=O)Nc1ccc2c(c1)CC[C@@]21OC(=O)N(CC(=O)N(Cc2ccc(F)cc2)[C@@H](C)C(F)(F)F)C1=O [A-485]
% of inhibition [1]: 99% | % of inhibition [2]: 94% | % of control [3]: 49% | % of control [4]: 22% | % of control [5]: 47% | Ki [6]: 1110 nM

CNC(=O)Nc1ccc2c(c1)[C@@]1(CC2)OC(=O)N(CC(=O)N(Cc2ccc(F)cc2)[C@@H](C)C(F)(F)F)C1=O [A-486]
% of control [7]: 41% | Ki [8]: 2580 nM | % of control [9]: 28% | % of control [10]: 0%

Cc1cnc(-c2cc(Cl)ccc2F)cc1-n1c(=O)n(CC(N)=O)c2ccccc21 [Al11]
% of control [11]: 47% | % of control [12]: 39.5% | Ki [13]: 1880 nM | % of control [14]: 51% | % of control [15]: 41% | % of control [16]: 54% | % of control [17]: 49%
